Assay results taken from DBAASP.
In brackets after ≈: the same amount, converted by molar mass. Several values for one entry are separate records, joined by “and”; a condition that tells them apart may be missing. Identical values can stand only once. Blank lines part the entries; values can stand above or below the compound they belong to.

Key:
Experiment in all cases: ≥ marks a high value that may be exact or a test limit, other limits are often not marked, values filed in µg/mL are converted to µM
[1] = tested on: Staphylococcus aureus ATCC BAA-1556
Acinetobacter baumannii = tested on: Acinetobacter baumannii
[2] = tested on: Candida albicans ATCC 90028
[3] = tested on: Escherichia coli ATCC 25726
[4] = tested on: Staphylococcus aureus ATCC 25923
Escherichia coli K-12 = tested on: Escherichia coli K-12
[5] = tested on: Staphylococcus aureus USA 300
[6] = tested on: Escherichia coli ATCC 25922
[7] = tested on: Staphylococcus aureus ATCC 2592
Bacillus subtilis 168 = tested on: Bacillus subtilis 168
[8] = tested on: Bacillus subtilis ATCC 6633
[9] = tested on: Pseudomonas aeruginosa PAO1
[10] = tested on: Candida albicans ATCC 2002
[11] = tested on: Pseudomonas aeruginosa ATCC 9027
Bacillus subtilis = tested on: Bacillus subtilis

MIC [1]: 3.12 µM (≈ 4.28 µg/mL)
Compound: CC(C)C[C@H](NC(=O)[C@H](Cc1c[nH]c2ccccc12)NC(=O)[C@H](CCCN=C(N)N)NC(=O)[C@H](CC(C)C)NC(=O)[C@H](Cc1c[nH]c2ccccc12)NC(=O)[C@H](CC(C)C)NC(=O)[C@H](CC(C)C)NC(=O)[C@H](Cc1c[nH]c2ccccc12)NC(=O)[C@@H](N)Cc1c[nH]c2ccccc12)C(N)=O [WWLLWLRWL]

MIC (Acinetobacter baumannii): 12.5 µM (≈ 28.4 µg/mL) | MIC [2]: 12.5 µM (≈ 28.4 µg/mL) | MIC [3]: 12.5 µM (≈ 28.4 µg/mL) | MIC [4]: 6.25 µM (≈ 14.2 µg/mL)
Compound: CC[C@H](C)[C@H](NC(=O)CN)C(=O)N[C@@H](Cc1c[nH]c2ccccc12)C(=O)N[C@@H](CCCCN)C(=O)N[C@H](C(=O)N[C@H](C(=O)N[C@@H](CCCCN)C(=O)N[C@@H](CO)C(=O)N[C@@H](CCSC)C(=O)NCC(=O)N[C@@H](CCCCN)C(=O)N[C@H](C(=O)N[C@@H](Cc1ccccc1)C(=O)N[C@@H](C)C(=O)NCC(=O)N[C@@H](C)C(=O)N[C@H](C(=O)N[C@@H](CC(C)C)C(=O)N[C@@H](CCC(N)=O)C(=O)N[C@@H](CC(N)=O)C(=O)N[C@@H](CC(C)C)C(N)=O)[C@@H](C)CC)C(C)C)[C@@H](C)CC)[C@@H](C)O [GIWKTIKSMGKVFAGAILQNL]

MIC (Escherichia coli K-12): 30 µM (≈ 48.8 µg/mL) | MIC [5]: 30 µM (≈ 48.8 µg/mL)
Compound: CC[C@H](C)[C@H](NC(=O)[C@H](CC(C)C)NC(=O)[C@H](C)NC(=O)[C@@H]1CCCN1C(=O)[C@H](CCCN=C(N)N)NC(=O)[C@@H](N)Cc1ccccc1)C(=O)N[C@H](C(=O)N[C@@H](CCCN=C(N)N)C(=O)N[C@H](C(=O)N[C@@H](CCCCN)C(=O)NCC(=O)N[C@H](C(=O)N[C@@H](CCCN=C(N)N)C(=O)N[C@@H](CC(C)C)C(=O)O)[C@@H](C)O)[C@@H](C)O)C(C)C [FRPALIVRTKGTRL]

MIC [1]: ≥ 100 µM
Compound: CC(C)C[C@H](NC(=O)[C@H](CC(C)C)NC(=O)[C@H](CCCCN)NC(=O)[C@H](CC(C)C)NC(=O)[C@H](CC(C)C)NC(=O)[C@H](CC(C)C)NC(=O)[C@H](CC(C)C)NC(=O)[C@H](CCCCN)NC(=O)[C@@H](N)CC(C)C)C(N)=O [LKLLLLKLL]

MIC [6]: 150 µM and 100 µM | MIC [7]: ≥ 75 µM
Compound: CC[C@H](C)[C@H](NC(=O)CN)C(=O)NCC(=O)N[C@@H](CCCN=C(N)N)C(=O)N[C@@H](CCCCN)C(=O)N[C@@H](Cc1ccccc1)C(=O)N[C@@H](CC(C)C)C(=O)NCC(=O)NCC(=O)N[C@H](C(=O)N[C@@H](CCCCN)C(=O)N[C@H](C(=O)N[C@H](C(=O)N[C@@H](Cc1ccccc1)C(=O)N[C@@H](CCCN=C(N)N)C(=O)NCC(=O)NCC(=O)N[C@H](C(=O)N[C@@H](CCCCN)C(=O)N[C@@H](CC(=O)O)C(=O)N[C@@H](Cc1ccccc1)C(=O)N[C@@H](C)C(=O)N[C@@H](CO)C(=O)N[C@@H](CCCCN)C(=O)N[C@@H](Cc1cnc[nH]1)C(=O)N[C@@H](CC(C)C)C(=O)N[C@@H](Cc1ccc(O)cc1)C(N)=O)C(C)C)[C@@H](C)O)[C@@H](C)O)C(C)C [GIGRKFLGGVKTTFRGGVKDFASKHLY]

MIC [2]: 25 µM (≈ 72.3 µg/mL) | MIC [3]: 12.5 µM (≈ 36.2 µg/mL) | MIC [4]: 6 µM (≈ 17.4 µg/mL)
Compound: CSCC[C@H](NC(=O)[C@H](CCSC)NC(=O)[C@H](CCCCN)NC(=O)CNC(=O)[C@@H](NC(=O)[C@@H](NC(=O)[C@H](CCCCN)NC(=O)[C@H](CC(C)C)NC(=O)CNC(=O)[C@H](Cc1ccccc1)NC(=O)[C@H](CCCCN)NC(=O)[C@H](Cc1ccccc1)NC(=O)[C@H](C)NC(=O)[C@H](CCCCN)NC(=O)CNC(=O)[C@H](CC(C)C)NC(=O)[C@H](CC(C)C)NC(=O)[C@H](CO)NC(=O)CNC(=O)[C@H](CC(C)C)NC(=O)CN)[C@@H](C)O)C(C)C)C(=O)N[C@@H](C)C(=O)NCC(=O)N[C@@H](C)C(=O)N1CCC[C@H]1C(=O)N[C@@H](CCCN=C(N)N)C(=O)N[C@@H](CCC(=O)O)C(=O)N[C@@H](CCC(N)=O)C(=O)O [GLGSLLGKAFKFGLKTVGKMMAGAPREQ]

MIC (Bacillus subtilis 168): 8 µM (≈ 16.5 µg/mL) | MIC (Escherichia coli K-12): 2 µM (≈ 4.12 µg/mL)
Compound: CC[C@H](C)[C@H](NC(=O)[C@H](CCCCN)NC(=O)[C@H](CCCN=C(N)N)NC(=O)CNC(=O)[C@H](CC(C)C)NC(=O)[C@H](CO)NC(=O)[C@H](CCCN=C(N)N)NC(=O)[C@H](CC(C)C)NC(=O)CNC(=O)CN)C(=O)N[C@@H](CC(C)C)C(=O)N[C@@H](CCCN=C(N)N)C(=O)N[C@@H](C)C(=O)N[C@@H](Cc1c[nH]c2ccccc12)C(=O)N[C@@H](CCCCN)C(=O)N[C@@H](CCCCN)C(=O)N[C@@H](Cc1ccc(O)cc1)C(=O)NCC(=O)O [GGLRSLGRKILRAWKKYG]

MIC [8]: 15.8 µM (≈ 25 µg/mL) | MIC [7]: 7.92 µM (≈ 12.5 µg/mL)
Compound: CC[C@H](C)[C@H](NC(=O)[C@@H](NC(=O)[C@@H](N)Cc1ccccc1)[C@@H](C)CC)C(=O)N[C@H](C(=O)NCC(=O)N[C@@H](CC(C)C)C(=O)N[C@H](C(=O)N[C@@H](CCCN=C(N)N)C(=O)NCC(=O)N[C@@H](CC(C)C)C(=O)N[C@H](C(=O)N[C@@H](CCCCN)C(=O)N[C@@H](CC(C)C)C(=O)N[C@@H](Cc1ccccc1)C(N)=O)[C@@H](C)O)C(C)C)[C@@H](C)O [FIITGLVRGLTKLF]

MIC (Bacillus subtilis 168): 25 µM (≈ 51.8 µg/mL) | MIC (Escherichia coli K-12): ≥ 100 µM | MIC [9]: > 100 µM | MIC [5]: 6.2 µM (≈ 12.8 µg/mL)
Compound: CC[C@H](C)[C@H](NC(=O)[C@H](C)NC(=O)[C@@H]1CCCN1C(=O)[C@@H](NC(=O)[C@@H](NC(=O)[C@H](Cc1cnc[nH]1)NC(=O)[C@H](CO)NC(=O)[C@@H](NC(=O)[C@@H](NC(=O)[C@H](CO)NC(=O)CNC(=O)[C@H](CC(C)C)NC(=O)[C@H](CC(C)C)NC(=O)CNC(=O)[C@H](CC(C)C)NC(=O)[C@H](CC(C)C)NC(=O)CN)C(C)C)C(C)C)C(C)C)C(C)C)C(=O)N[C@H](C(=O)NCC(=O)N[C@@H](Cc1cnc[nH]1)C(=O)N[C@@H](Cc1ccccc1)C(N)=O)C(C)C [GLLGLLGSVVSHVVPAIVGHF]

MIC (Escherichia coli K-12): ≥ 60 µM | MIC [5]: 7.5 µM (≈ 15.3 µg/mL)
Compound: CC[C@H](C)[C@H](NC(=O)[C@H](CCCN=C(N)N)NC(=O)[C@H](CCC(N)=O)NC(=O)[C@@H](NC(=O)[C@@H](NC(=O)[C@H](CCCN=C(N)N)NC(=O)[C@H](CCCCN)NC(=O)[C@H](Cc1ccccc1)NC(=O)CN)[C@@H](C)CC)C(C)C)C(=O)N[C@@H](C)C(=O)N[C@@H](CC(=O)O)C(=O)N[C@@H](Cc1ccccc1)C(=O)N[C@@H](CC(C)C)C(=O)N[C@@H](CCCN=C(N)N)C(=O)N[C@@H](CC(N)=O)C(=O)N[C@@H](CC(C)C)C(=O)N[C@H](C(N)=O)C(C)C [GFKRIVQRIADFLRNLV]

MIC [10]: ≥ 32 µM | MIC [6]: 2 µM (≈ 6.23 µg/mL) | MIC [11]: 6 µM (≈ 18.7 µg/mL) | MIC [7]: 1 µM (≈ 3.11 µg/mL)
Compound: CC[C@H](C)[C@H](NC(=O)CNC(=O)[C@@H]1CCCN1C(=O)CNC(=O)[C@H](CC(C)C)NC(=O)[C@H](CC(N)=O)NC(=O)[C@H](C)NC(=O)[C@H](Cc1ccccc1)NC(=O)[C@H](CC(N)=O)NC(=O)[C@H](C)NC(=O)[C@H](CCCN=C(N)N)NC(=O)[C@H](Cc1ccccc1)NC(=O)[C@H](C)NC(=O)[C@@H](NC(=O)[C@H](CCCN=C(N)N)NC(=O)[C@H](Cc1c[nH]c2ccccc12)NC(=O)[C@H](Cc1ccc(O)cc1)NC(=O)[C@H](CC(=O)O)NC(=O)[C@H](C)NC(=O)[C@H](CC(C)C)NC(=O)CN)[C@@H](C)O)C(=O)N[C@@H](CCCN=C(N)N)C(=O)N[C@H]1CSSC[C@@H](C(=O)O)NC(=O)[C@H](CCCN=C(N)N)NC(=O)[C@H](C)NC(=O)[C@H](CO)NC(=O)[C@H](CCCCN)NC1=O [GLADYWRTAFRANFANLGPGIRCKSARC]

MIC (Bacillus subtilis): ≥ 44.4 µM | MIC [10]: 11.1 µM (≈ 30 µg/mL) | MIC [6]: 44.4 µM (≈ 120 µg/mL) | MIC [7]: 5.55 µM (≈ 15 µg/mL)
Compound: CC[C@H](C)[C@H](NC(=O)[C@H](CCC(N)=O)NC(=O)[C@H](CCCCN)NC(=O)CNC(=O)[C@H](CC(C)C)NC(=O)[C@H](CCC(N)=O)NC(=O)CNC(=O)[C@H](CC(C)C)NC(=O)[C@H](CCCCN)NC(=O)[C@H](C)NC(=O)[C@H](CCC(=O)O)NC(=O)[C@H](CCCCN)NC(=O)[C@@H](NC(=O)CNC(=O)[C@@H](NC(=O)[C@@H](NC(=O)[C@@H](NC(=O)[C@@H](N)CO)[C@@H](C)CC)[C@@H](C)CC)[C@@H](C)O)[C@@H](C)O)C(=O)N[C@@H](C)C(=O)N[C@H]1CSSC[C@@H](C(=O)O)NC(=O)[C@H]([C@@H](C)O)NC(=O)[C@H](CC(N)=O)NC(=O)CNC(=O)[C@H](CC(C)C)NC(=O)[C@H](CCCN=C(N)N)NC1=O [SIITGTKEAKLGQLGKQIACRLGNTC]

MIC (Bacillus subtilis): 20.4 µM (≈ 60 µg/mL) | MIC [10]: 5.09 µM (≈ 15 µg/mL) | MIC [6]: 10.2 µM (≈ 30 µg/mL) | MIC [7]: 5.09 µM (≈ 15 µg/mL)
Compound: CC[C@H](C)[C@H](NC(=O)[C@H](CCC(N)=O)NC(=O)[C@H](CCCCN)NC(=O)[C@H](Cc1c[nH]c2ccccc12)NC(=O)[C@H](CC(C)C)NC(=O)[C@H](CCC(N)=O)NC(=O)[C@@H]1CCCN1C(=O)[C@H](CC(C)C)NC(=O)[C@H](CCCCN)NC(=O)[C@H](C)NC(=O)[C@H](CCC(=O)O)NC(=O)[C@H](CCCCN)NC(=O)[C@@H](NC(=O)[C@H](CCSC)NC(=O)[C@@H](NC(=O)[C@@H](NC(=O)[C@@H](NC(=O)[C@@H](N)CO)[C@@H](C)CC)[C@@H](C)CC)[C@@H](C)O)[C@@H](C)O)C(=O)N[C@@H](C)C(=O)N[C@H]1CSSC[C@@H](C(=O)O)NC(=O)[C@H]([C@@H](C)O)NC(=O)[C@H](CC(N)=O)NC(=O)CNC(=O)[C@H](CC(C)C)NC(=O)[C@H](CCCN=C(N)N)NC1=O [SIITMTKEAKLPQLWKQIACRLGNTC]
